The assay deals with T1, PARK7 (Homo sapiens, UniProt Q99497).
T1 sequence (Q99497 1-189): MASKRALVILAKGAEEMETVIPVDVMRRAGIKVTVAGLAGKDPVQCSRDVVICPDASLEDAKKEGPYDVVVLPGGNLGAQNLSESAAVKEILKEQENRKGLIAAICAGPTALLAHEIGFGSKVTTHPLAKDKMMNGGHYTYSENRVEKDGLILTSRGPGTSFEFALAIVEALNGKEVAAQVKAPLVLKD
Description: High-throughput screen of the crude compound library, PARK7 fluorescence polarization (FP) assay with FP reagent JYQ-107. The class given is biochemical. The settings on record: 1.25 µM, crude compound library; read-out: HTS FP assay %Inhibition (1.25 µM). From the text:
Therefore, taking JYQ-88 as a starting point, we conducted an optimization to further improve the molecule in terms of inhibitory potency, specificity, and cellular uptake. […] First, a small tailored library was designed and synthesized to investigate whether the introduction of larger, hydrophilic substituents on JYQ-88 would enhance the interaction with the PARK7 pocket. […] The second approach involved the generation of a compound library containing diverse substituents at the azidomethyl position. […] We next performed a high-throughput screen of this crude compound library using our in-house developed PARK7 fluorescence polarization (FP) assay.[15]

For the compound `Cc1noc(C)c1Cc1ccc(C(=O)N2CCc3nc(NC(=O)[C@@H]4CCN(C#N)C4)sc3C2)o1` [compound 95], the inhibition at 1.25 µM was determined as 81.3%.

Consider `Cc1cc(NS(=O)(=O)c2cccc(C(=O)N3CCc4nc(NC(=O)[C@@H]5CCN(C#N)C5)sc4C3)c2)no1` [compound 96], for which the inhibition at 1.25 µM came out at 77.9%.

For `CN1CCN(C(=O)C2CC=CCC2C(=O)N2CCc3nc(NC(=O)[C@@H]4CCN(C#N)C4)sc3C2)CC1` (some centres unmarked) [compound 97], the inhibition at 1.25 µM was 72.8%.

As to `N#CN1CC[C@@H](C(=O)Nc2nc3c(s2)CN(C(=O)c2ccc(S(=O)(=O)N4CCOCC4)cc2)CC3)C1` [compound 98], the inhibition at 1.25 µM turned out to be 78.4%.

As for `N#CN1CC[C@@H](C(=O)Nc2nc3c(s2)CN(C(=O)Cc2csc(-n4cccc4)n2)CC3)C1` [compound 99], the inhibition at 1.25 µM stood at 86.7%.

For `Cc1cc(-c2nc(C)sc2CC(=O)N2CCc3nc(NC(=O)[C@@H]4CCN(C#N)C4)sc3C2)c(C)s1` [compound 100], the inhibition at 1.25 µM came to 75.4%.

Take `N#CN1CC[C@@H](C(=O)Nc2nc3c(s2)CN(C(=O)C2CC(=O)N(CCOc4ccccc4Cl)C2)CC3)C1` (some centres unmarked) [compound 101]: the inhibition at 1.25 µM was found to be 79.1%.

`N#CN1CC[C@@H](C(=O)Nc2nc3c(s2)CN(C(=O)c2ccc(-n4ncc(Cl)c(Cl)c4=O)cc2)CC3)C1` [compound 102]: the inhibition at 1.25 µM came to 69.3%.

On to `N#CN1CC[C@@H](C(=O)Nc2nc3c(s2)CN(C(=O)c2ccc(CN4CCOCC4)cc2)CC3)C1` [compound 103], for which the inhibition at 1.25 µM is 86.4%.

For the compound `N#CN1CC[C@@H](C(=O)Nc2nc3c(s2)CN(C(=O)c2cnc(-c4ccco4)s2)CC3)C1` [compound 104], the inhibition at 1.25 µM worked out at 62.8%.

As for `N#CN1CC[C@@H](C(=O)Nc2nc3c(s2)CN(C(=O)Cc2csc(-c4cccs4)n2)CC3)C1` [compound 105], the inhibition at 1.25 µM worked out at 85.3%.

On to `N#CN1CC[C@@H](C(=O)Nc2nc3c(s2)CN(C(=O)c2csc(-c4ccccn4)n2)CC3)C1` [compound 106], for which the inhibition at 1.25 µM was 85.1%.

In the case of `Cc1noc(C)c1COc1ccc(CC(=O)N2CCc3nc(NC(=O)[C@@H]4CCN(C#N)C4)sc3C2)cc1` [compound 107], the inhibition at 1.25 µM turned out to be 82.7%.

Take `N#CN1CC[C@@H](C(=O)Nc2nc3c(s2)CN(C(=O)CC2=NN(c4ncc(C(F)(F)F)cc4Cl)C(=O)C2)CC3)C1` [compound 109]: the inhibition at 1.25 µM is 68.1%.

On to `N#CN1CC[C@@H](C(=O)Nc2nc3c(s2)CN(C(=O)c2occc2COc2ccccc2)CC3)C1` [compound 111], for which the inhibition at 1.25 µM was 82.9%.

As for `N#CN1CC[C@@H](C(=O)Nc2nc3c(s2)CN(C(=O)C2CCN(C(=O)CCOc4ccccc4)CC2)CC3)C1` [compound 113], the inhibition at 1.25 µM worked out at 68.7%.

Take `Cn1cc(S(=O)(=O)N2CCCC(C(=O)N3CCc4nc(NC(=O)[C@@H]5CCN(C#N)C5)sc4C3)C2)cn1` (some centres unmarked) [compound 114]: the inhibition at 1.25 µM was 68.2%.

Take `N#CN1CC[C@@H](C(=O)Nc2nc3c(s2)CN(C(=O)c2cc(S(=O)(=O)N4CCOCC4)c[nH]2)CC3)C1` [compound 115]: the inhibition at 1.25 µM came to 81%.

On to `COc1ccc(OCc2cc(C)on2)c(C(=O)N2CCc3nc(NC(=O)[C@@H]4CCN(C#N)C4)sc3C2)c1` [compound 116], for which the inhibition at 1.25 µM stood at 81.9%.

As to `N#CN1CC[C@@H](C(=O)Nc2nc3c(s2)CN(C(=O)C2CC(=O)N(CCN4CCOCC4)C2)CC3)C1` (some centres unmarked) [compound 117], the inhibition at 1.25 µM was 71.4%.

`N#CN1CC[C@@H](C(=O)Nc2nc3c(s2)CN(C(=O)Cc2cccc(OCc4cccnc4)c2)CC3)C1` [compound 118]: the inhibition at 1.25 µM came out at 83.7%.

Take `CN(Cc1cccnc1)S(=O)(=O)c1cc(C(=O)N2CCc3nc(NC(=O)[C@@H]4CCN(C#N)C4)sc3C2)n(C)c1` [compound 119]: the inhibition at 1.25 µM turned out to be 71.9%.

Regarding `Cc1n[nH]c(C)c1S(=O)(=O)N1CCC(C(=O)N2CCc3nc(NC(=O)[C@@H]4CCN(C#N)C4)sc3C2)CC1` [compound 120], the inhibition at 1.25 µM was determined as 46.4%.

Regarding `N#CN1CC[C@@H](C(=O)Nc2nc3c(s2)CN(C(=O)c2occc2CN2CCOCC2)CC3)C1` [compound 122], the inhibition at 1.25 µM was 70.9%.

For the compound `N#CN1CC[C@@H](C(=O)Nc2nc3c(s2)CN(C(=O)c2ccc(COc4ccccc4Br)cc2)CC3)C1` [compound 123], the inhibition at 1.25 µM was found to be 67.6%.

As to `N#CN1CC[C@@H](C(=O)Nc2nc3c(s2)CN(C(=O)c2cccc(-c4cnco4)c2)CC3)C1` [compound 124], the inhibition at 1.25 µM came to 85.6%.

With `N#CN1CC[C@@H](C(=O)Nc2nc3c(s2)CN(C(=O)c2ccc(N4NC(=O)CCC4=O)cc2)CC3)C1` [compound 125], the inhibition at 1.25 µM was 85.7%.

On to `Cc1nc(C(=O)N2CCc3nc(NC(=O)[C@@H]4CCN(C#N)C4)sc3C2)co1` [compound 126], for which the inhibition at 1.25 µM was found to be 70.6%.

Consider `N#CN1CC[C@@H](C(=O)Nc2nc3c(s2)CN(C(=O)c2ccc(=O)n(Cc4ccccc4)n2)CC3)C1` [compound 127], for which the inhibition at 1.25 µM turned out to be 83.8%.

For `Cc1nc(-c2cccnc2)sc1C(=O)N1CCc2nc(NC(=O)[C@@H]3CCN(C#N)C3)sc2C1` [compound 128], the inhibition at 1.25 µM amounted to 76.5%.

On to `CN1CCN(C(=O)c2ccccc2C(=O)N2CCc3nc(NC(=O)[C@@H]4CCN(C#N)C4)sc3C2)CC1` [compound 129], for which the inhibition at 1.25 µM amounted to 71.3%.

Turning to `Cc1cc(C(=O)N2CCc3nc(NC(=O)[C@@H]4CCN(C#N)C4)sc3C2)c(C)n1-c1ccon1` [compound 130], the inhibition at 1.25 µM was 76.2%.

Consider `N#CN1CC[C@@H](C(=O)Nc2nc3c(s2)CN(C(=O)c2ccnn2C2CCOCC2)CC3)C1` [compound 132], for which the inhibition at 1.25 µM was found to be 73.2%.

`Cn1nc(C(=O)N2CCOCC2)cc1C(=O)N1CCc2nc(NC(=O)[C@@H]3CCN(C#N)C3)sc2C1` [compound 134]: the inhibition at 1.25 µM worked out at 87.6%.

In the case of `Cc1nn(C2CCOCC2)c(C)c1C(=O)N1CCc2nc(NC(=O)[C@@H]3CCN(C#N)C3)sc2C1` [compound 135], the inhibition at 1.25 µM came to 63%.

On to `N#CN1CC[C@@H](C(=O)Nc2nc3c(s2)CN(C(=O)C2CCOC4(CCC4)C2)CC3)C1` (some centres unmarked) [compound 136], for which the inhibition at 1.25 µM came to 80.8%.

Take `N#CN1CC[C@@H](C(=O)Nc2nc3c(s2)CN(C(=O)c2cnn(CCN4CCCC4)c2)CC3)C1` [compound 137]: the inhibition at 1.25 µM was found to be 70.1%.

For the compound `N#CN1CC[C@@H](C(=O)Nc2nc3c(s2)CN(C(=O)C2(c4cccs4)CC2)CC3)C1` [compound 138], the inhibition at 1.25 µM came to 81.9%.

Take `N#CN1CC[C@@H](C(=O)Nc2nc3c(s2)CN(C(=O)C(c2ccccc2)n2cnnn2)CC3)C1` (some centres unmarked) [compound 141]: the inhibition at 1.25 µM amounted to 59.5%.

With `Cc1csc(N2CCCC(C(=O)N3CCc4nc(NC(=O)[C@@H]5CCN(C#N)C5)sc4C3)C2)n1` (some centres unmarked) [compound 142], the inhibition at 1.25 µM was determined as 85.9%.

`CC(C(=O)N1CCc2nc(NC(=O)[C@@H]3CCN(C#N)C3)sc2C1)n1nc(C(F)(F)F)cc1C1CC1` (some centres unmarked) [compound 143]: the inhibition at 1.25 µM came to 64.1%.

Consider `N#CN1CC[C@@H](C(=O)Nc2nc3c(s2)CN(C(=O)C2CCCN2C(=O)Cc2ccccc2)CC3)C1` (some centres unmarked) [compound 144], for which the inhibition at 1.25 µM was determined as 78.4%.

Turning to `N#CN1CC[C@@H](C(=O)Nc2nc3c(s2)CN(C(=O)CC2(n4cccc4)CCCCC2)CC3)C1` [compound 145], the inhibition at 1.25 µM is 83.7%.

As to `N#CN1CC[C@@H](C(=O)Nc2nc3c(s2)CN(C(=O)c2ccc(OCn4cc(Cl)cn4)cc2)CC3)C1` [compound 147], the inhibition at 1.25 µM was 82.4%.
